The values that follow come from PMC8333062, “Chemical tools for epichaperome-mediated interactome dysfunctions of the central nervous system” (Nature Communications, 2021).

System in one data set: not given
Test: not given
The settings on record: PAMPA. In general terms: In PAMPA a lipid-coated filter parts donor from acceptor wells.
`CCCN(CCCn1c(Cc2cc3c(cc2I)OCO3)nc2c(N)nc(F)nc21)CC1CC1` [Compound 63] yielded a PAMPA_BBB of 8.4±2.1.
`CCN(C)CCCn1c(Cc2cc3c(cc2I)OCO3)nc2c(N)nc(F)nc21` [Compound 62] returned a PAMPA_BBB of 7.5±0.1.
Same read-out and setting: the result for `Nc1nc(F)nc2c1nc(Cc1cc3c(cc1I)OCO3)n2CCCN(CCO)C1CCCCC1` [Compound 70] reads 8.5±0.1.
On the same count and under the same terms, next, `C=CCN(C)CCCn1c(Cc2cc3c(cc2I)OCO3)nc2c(N)nc(F)nc21` [Compound 65]: 11.3±1.9.
On the same count and under the same terms, the result for `CC(C)NCCCn1c(Sc2cc3ccccc3cc2I)nc2c(N)ncnc21` [Compound 58] reads 10.8±0.2; that for `CCN(CCCn1c(Cc2cc3c(cc2I)OCO3)nc2c(N)nc(F)nc21)C(C)C` [Compound 61], 7.5±0.2; that for `CC(C)N(C)CCCn1c(Cc2cc3c(cc2I)OCO3)nc2c(N)nc(F)nc21` [Compound 60], 5.8±1.3.
In the case of `CC1CN1CCCn1c(Cc2cc3c(cc2I)OCO3)nc2c(N)nc(F)nc21` (stereo not drawn) [Compound 66], the PAMPA_BBB is recorded as 5.8±1.5.
Same read-out and setting: next, `CC(C)N(CCO)CCCn1c(Cc2cc3c(cc2I)OCO3)nc2c(N)nc(F)nc21` [Compound 69]: 1.1±0.1; `CC(C)NCCCn1c(Sc2cc3c(cc2-c2ccc(N(C)C)cc2)OCO3)nc2c(N)ncnc21` [Compound 12]: 9.2±0.3.
Same read-out and setting: next, `CC(C)NCCCn1c(Sc2cc3c(cc2-c2ccccc2)OCO3)nc2c(N)ncnc21` [Compound 9]: 9.9±0.5.
`CC(C)CNCCn1c(Sc2cc3c(cc2I)CCO3)nc2c(N)ncnc21` [Compound 86] had a PAMPA_BBB of 9.3±0.2.
`Nc1nc(F)nc2c1nc(Cc1cc3c(cc1I)OCO3)n2CCCN1CCN(CCO)CC1` [Compound 71]: the PAMPA_BBB is recorded as 4.7±0.5.
Still for that read-out and setting: next, `CC(C)CNCCn1c(Sc2cc3c(cc2I)OCO3)nc2c(N)ncnc21` [Compound 84]: 8.9±0.5.
The same measure, in the same setting: next, `C=CCc1cc2c(cc1Sc1nc3c(N)ncnc3n1CCCNC(C)C)OCO2` [Compound 8]: 6.7±0.7.
Still for that read-out and setting: next, `CC(C)NCCCn1c(Sc2cc3c(cc2-c2ccc(C(C)(C)C)cc2)OCO3)nc2c(N)ncnc21` [Compound 11]: 12.5±0.6; `Nc1nc(F)nc2c1nc(Cc1cc3c(cc1I)OCO3)n2CCCN1CCOCC1` [Compound 68]: 6.3±1.1.
Regarding `C=Cc1cc2c(cc1Sc1nc3c(N)ncnc3n1CCCNC(C)C)OCO2` [Compound 7], the PAMPA_BBB stood at 6.1±0.1.

Staying with this data set, now noted: pH 7.4.
`CCCN(CCCn1c(Cc2cc3c(cc2I)OCO3)nc2c(N)nc(F)nc21)CC1CC1` [Compound 63]: the PAMPA-BBB is given as 8.4±2.1 10-6 cms-1.
As for `CCN(C)CCCn1c(Cc2cc3c(cc2I)OCO3)nc2c(N)nc(F)nc21` [Compound 62], the PAMPA-BBB is recorded as 7.5±0.1 10-6 cms-1.
Turning to `Nc1nc(F)nc2c1nc(Cc1cc3c(cc1I)OCO3)n2CCCN(CCO)C1CCCCC1` [Compound 70], the PAMPA-BBB is 8.5±0.1 10-6 cms-1.
Regarding `C=CCN(C)CCCn1c(Cc2cc3c(cc2I)OCO3)nc2c(N)nc(F)nc21` [Compound 65], the PAMPA-BBB is 11.3±1.9 10-6 cms-1.
The same measure, in the same setting: next, `CC(C)NCCCn1c(Sc2cc3ccccc3cc2I)nc2c(N)ncnc21` [Compound 58]: 10.8±0.2 10-6 cms-1.
On the same count and under the same terms, the result for `CCN(CCCn1c(Cc2cc3c(cc2I)OCO3)nc2c(N)nc(F)nc21)C(C)C` [Compound 61] reads 7.5±0.2 10-6 cms-1; that for `CC(C)N(C)CCCn1c(Cc2cc3c(cc2I)OCO3)nc2c(N)nc(F)nc21` [Compound 60], 5.8±1.3 10-6 cms-1.
As to `CC1CN1CCCn1c(Cc2cc3c(cc2I)OCO3)nc2c(N)nc(F)nc21` (stereo not drawn) [Compound 66], the PAMPA-BBB is 5.8±1.5 10-6 cms-1.
The same measure, in the same setting: the result for `CC(C)N(CCO)CCCn1c(Cc2cc3c(cc2I)OCO3)nc2c(N)nc(F)nc21` [Compound 69] reads 1.1±0.1 10-6 cms-1; that for `CC(C)NCCCn1c(Sc2cc3c(cc2-c2ccc(N(C)C)cc2)OCO3)nc2c(N)ncnc21` [Compound 12], 9.2±0.3 10-6 cms-1; that for `CC(C)NCCCn1c(Sc2cc3c(cc2-c2ccccc2)OCO3)nc2c(N)ncnc21` [Compound 9], 9.9±0.5 10-6 cms-1.
Regarding `CC(C)CNCCn1c(Sc2cc3c(cc2I)CCO3)nc2c(N)ncnc21` [Compound 86], the PAMPA-BBB is 9.3±0.2 10-6 cms-1.
The same measure, in the same setting: the result for `Nc1nc(F)nc2c1nc(Cc1cc3c(cc1I)OCO3)n2CCCN1CCN(CCO)CC1` [Compound 71] reads 4.7±0.5 10-6 cms-1.
On the same count and under the same terms, the result for `CC(C)CNCCn1c(Sc2cc3c(cc2I)OCO3)nc2c(N)ncnc21` [Compound 84] reads 8.9±0.5 10-6 cms-1.
Same read-out and setting: the result for `C=CCc1cc2c(cc1Sc1nc3c(N)ncnc3n1CCCNC(C)C)OCO2` [Compound 8] reads 6.7±0.7 10-6 cms-1.
With `CC(C)NCCCn1c(Sc2cc3c(cc2-c2ccc(C(C)(C)C)cc2)OCO3)nc2c(N)ncnc21` [Compound 11], the PAMPA-BBB is 12.5±0.6 10-6 cms-1.
On the same count and under the same terms, next, `Nc1nc(F)nc2c1nc(Cc1cc3c(cc1I)OCO3)n2CCCN1CCOCC1` [Compound 68]: 6.3±1.1 10-6 cms-1.
As to `C=Cc1cc2c(cc1Sc1nc3c(N)ncnc3n1CCCNC(C)C)OCO2` [Compound 7], the PAMPA-BBB is listed as 6.1±0.1 10-6 cms-1.

System in a further data set: not listed separately
As to the kind of experiment: Pharmacokinetic studies in mice (LC-MS/MS). The format is in vivo, B6D2F1 mice. Further details: Plasma level: unit: uM. The following applies: Brain; time 5 min; individual animals. The procedure: Blood and brain tissue were collected following euthanasia at the scheduled time points of 5, 30 min, 1, 4, and 8 h following iv dosing and of 30 min, 1, 4, and 8 h following po dosing. Brain samples were immediately flash frozen in liquid nitrogen following collection and stored at −80 °C until analysis. Blood samples were collected into an EDTA tube by heart puncture and centrifuged at 17,000×g for 5 min at 4 °C to separate the plasma and immediately frozen on dry ice and stored at −80 °C until analysis. […] This was homogenized, extracted with methylene chloride, and evaporated on a GeneVac. […] Drug concentration (μM) in the brain was then modified to account for an average water space of 0.8 mL g^−1.
With `NCCn1c(Sc2cc3c(cc2I)OCO3)nc2c(N)ncnc21` [Compound M1], the Brain level is given as 0.

Staying with this data set, now noted: Brain; time 0.5 h; individual animals.
Regarding `NCCn1c(Sc2cc3c(cc2I)OCO3)nc2c(N)ncnc21` [Compound M1], the Brain level came out at 0.

The data set is the same for the next values; noted with them: Brain; time 1 h; individual animals.
Take `NCCn1c(Sc2cc3c(cc2I)OCO3)nc2c(N)ncnc21` [Compound M1]: the Brain level turned out to be 0.

The data set is the same for the next values; noted with them: Brain; time 4 h; individual animals.
Compound `NCCn1c(Sc2cc3c(cc2I)OCO3)nc2c(N)ncnc21` [Compound M1] registered a Brain level of 0.

Still in this data set, the particulars now being: Brain; time 8 h; individual animals.
On to `NCCn1c(Sc2cc3c(cc2I)OCO3)nc2c(N)ncnc21` [Compound M1], for which the Brain level worked out at 0.

The same data set, now with this note: Plasma; time 5 min; individual animals.
`NCCn1c(Sc2cc3c(cc2I)OCO3)nc2c(N)ncnc21` [Compound M1] registered a Plasma level of 0.

Staying with this data set, now noted: Plasma; time 0.5 h; individual animals.
With `NCCn1c(Sc2cc3c(cc2I)OCO3)nc2c(N)ncnc21` [Compound M1], the Plasma level was 0.

The data set is the same for the next values; noted with them: Plasma; time 1 h; individual animals.
In turn, `NCCn1c(Sc2cc3c(cc2I)OCO3)nc2c(N)ncnc21` [Compound M1] showed a Plasma level of 0.

The data set is the same for the next values; noted with them: Plasma; time 4 h; individual animals.
In turn, `NCCn1c(Sc2cc3c(cc2I)OCO3)nc2c(N)ncnc21` [Compound M1] gave a Plasma level of 0.

Still in this data set, the particulars now being: Plasma; time 8 h; individual animals.
Compound `NCCn1c(Sc2cc3c(cc2I)OCO3)nc2c(N)ncnc21` [Compound M1] displayed a Plasma level of 0.

A further data set deals with HSP90 pools in JNPL3 (AD transgenic) mouse brain lysate. The data set can be described thus: Fluorescence polarization (FP) competitive binding, cy3B-GM. The settings on record: displacement of cy3B-GM, 24 h, 4 °C; mean±SD, n=3; read-out: FP relative affinity. Background: Polarisation of emitted light reports the rotation of a fluorescent probe.
As for `CCCN(CCCn1c(Cc2cc3c(cc2I)OCO3)nc2c(N)nc(F)nc21)CC1CC1` [Compound 63], the EC50 amounted to 43 ± 4 nM.
Take `CCN(C)CCCn1c(Cc2cc3c(cc2I)OCO3)nc2c(N)nc(F)nc21` [Compound 62]: the EC50 is 45 ± 19 nM.
Still for that read-out and setting: next, `Nc1nc(F)nc2c1nc(Cc1cc3c(cc1I)OCO3)n2CCCN(CCO)C1CCCCC1` [Compound 70]: 24 ± 2 nM.
On the same count and under the same terms, the result for `C=CCN(C)CCCn1c(Cc2cc3c(cc2I)OCO3)nc2c(N)nc(F)nc21` [Compound 65] reads 44 ± 4 nM; that for `CC(C)NCCCn1c(Sc2cc3ccccc3cc2I)nc2c(N)ncnc21` [Compound 58], 97 ± 3 nM.
As for `CCN(CCCn1c(Cc2cc3c(cc2I)OCO3)nc2c(N)nc(F)nc21)C(C)C` [Compound 61], the EC50 came to 30 ± 13 nM.
With `CC(C)N(C)CCCn1c(Cc2cc3c(cc2I)OCO3)nc2c(N)nc(F)nc21` [Compound 60], the EC50 was found to be 39 ± 2 nM.
On the same count and under the same terms, next, `CC(C)NCCCn1c(Sc2cc3c(cc2-c2ccc(N(C)C)cc2)OCO3)nc2c(N)ncnc21` [Compound 12]: 1390 nM.
On to `CC(C)NCCCn1c(Sc2cc3c(cc2-c2ccccc2)OCO3)nc2c(N)ncnc21` [Compound 9], for which the EC50 worked out at 270 ± 10 nM.
Same read-out and setting: the result for `CC(C)CNCCn1c(Sc2cc3c(cc2I)CCO3)nc2c(N)ncnc21` [Compound 86] reads 5.5 ± 0.6 nM; that for `CC(C)CNCCn1c(Sc2cc3c(cc2I)OCO3)nc2c(N)ncnc21` [Compound 84], 14 ± 2 nM; that for `C=CCc1cc2c(cc1Sc1nc3c(N)ncnc3n1CCCNC(C)C)OCO2` [Compound 8], 122 ± 4 nM.
As for `CC(C)NCCCn1c(Sc2cc3c(cc2-c2ccc(C(C)(C)C)cc2)OCO3)nc2c(N)ncnc21` [Compound 11], the EC50 was found to be 2600 nM.
In the case of `C=Cc1cc2c(cc1Sc1nc3c(N)ncnc3n1CCCNC(C)C)OCO2` [Compound 7], the EC50 came to 213 ± 7 nM.

Staying with this data set, now noted: read-out: FP relative affinity.
As to `CC1CN1CCCn1c(Cc2cc3c(cc2I)OCO3)nc2c(N)nc(F)nc21` (stereo not drawn) [Compound 66], the EC50 amounted to 105 ± 5 nM.
As to `CC(C)N(CCO)CCCn1c(Cc2cc3c(cc2I)OCO3)nc2c(N)nc(F)nc21` [Compound 69], the EC50 is 61 ± 2 nM.
Regarding `Nc1nc(F)nc2c1nc(Cc1cc3c(cc1I)OCO3)n2CCCN1CCN(CCO)CC1` [Compound 71], the EC50 came to 200 ± 5 nM.
On the same count and under the same terms, the result for `Nc1nc(F)nc2c1nc(Cc1cc3c(cc1I)OCO3)n2CCCN1CCOCC1` [Compound 68] reads 202 ± 7 nM.

System in a further data set: not given
Test: not given
The settings on record: 10 µM PU-HZ151, 60 min, replicate 1.
Consider `NCCn1c(Sc2cc3c(cc2I)OCO3)nc2c(N)ncnc21` [Compound M1], for which the “% Peak area of metabolite” value was 53.0%.

The same data set, now with this note: 10 µM PU-HZ151, 60 min, replicate 2.
As to `NCCn1c(Sc2cc3c(cc2I)OCO3)nc2c(N)ncnc21` [Compound M1], the “% Peak area of metabolite” value is given as 59.1%.
